Experimental data from patent publication US10065990B2, “Cyclic peptide compound, and preparation method, pharmaceutical composition and use thereof” (HANGZHOU GUANYU BIO-MEDICAL CO., LTD, priority 2013, dated 2018).
Read-outs that look alike come from different tables or passages of the source.

Legend:
HDAC7 = target: T1, HDAC7 (Homo sapiens, UniProt Q8WUI4); assay: HDAC biochemical activity measurement (fluorescent substrate deacetylation);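 further: fluorogenic deacetylation assay using acetyl-lysine substrate at 20 µM, enzyme and compound incubated 30 min at 37 °C, then developer added, fluorescence read at 360/460 nm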; conditions: HDAC7; 37° C. 30 minutes
T1 sequence (Q8WUI4 1-952): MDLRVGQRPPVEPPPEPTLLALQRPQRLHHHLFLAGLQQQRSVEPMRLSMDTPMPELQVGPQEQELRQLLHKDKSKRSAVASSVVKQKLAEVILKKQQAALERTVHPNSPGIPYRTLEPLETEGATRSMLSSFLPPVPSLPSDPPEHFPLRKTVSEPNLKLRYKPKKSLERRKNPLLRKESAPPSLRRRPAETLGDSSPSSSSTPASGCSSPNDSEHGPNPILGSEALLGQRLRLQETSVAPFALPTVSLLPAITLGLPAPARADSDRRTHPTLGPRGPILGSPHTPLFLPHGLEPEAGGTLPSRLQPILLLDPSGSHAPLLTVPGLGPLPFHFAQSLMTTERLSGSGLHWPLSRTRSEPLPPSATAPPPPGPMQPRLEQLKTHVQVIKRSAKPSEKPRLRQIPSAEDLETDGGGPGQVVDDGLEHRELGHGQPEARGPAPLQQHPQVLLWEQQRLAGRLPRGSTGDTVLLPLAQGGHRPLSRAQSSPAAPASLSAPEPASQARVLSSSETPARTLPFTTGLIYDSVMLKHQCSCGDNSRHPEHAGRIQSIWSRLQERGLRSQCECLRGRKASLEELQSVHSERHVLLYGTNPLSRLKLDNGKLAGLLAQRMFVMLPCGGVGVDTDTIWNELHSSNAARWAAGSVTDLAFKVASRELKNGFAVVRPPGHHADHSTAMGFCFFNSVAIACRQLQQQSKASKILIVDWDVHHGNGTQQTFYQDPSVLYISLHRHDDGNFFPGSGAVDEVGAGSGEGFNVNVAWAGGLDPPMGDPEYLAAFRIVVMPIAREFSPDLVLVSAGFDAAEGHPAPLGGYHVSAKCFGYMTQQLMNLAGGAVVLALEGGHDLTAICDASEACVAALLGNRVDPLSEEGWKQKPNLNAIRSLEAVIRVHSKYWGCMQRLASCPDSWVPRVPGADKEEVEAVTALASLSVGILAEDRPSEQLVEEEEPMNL

[1] = test system: KBM-5 (human chronic myelogenous leukemia); assay: MTT cancer cell growth inhibition; type: cell-based; conditions: Homo sapiens, KBM5, 72 h, MTT, 72 hours incubation, KBM-5 cells; read-out: GI50 KBM-5
Outline: (§1)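 MTT viability, 570 nm, GI50. Cells 1500/well; compound 72 h at final 10^−5–10^−10 M in triplicate.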

[2] = test system: PANC-1 (Pac-1, human pancreatic cancer cells); assay: MTT cancer cell growth inhibition; type: cell-based; conditions: Homo sapiens, PANC-1, 72 h, MTT, 72 hours incubation, read-out: GI50 PAN
Outline: as §1

[3] = test system: MCF-7 (human breast cancer cells); assay: MTT cancer cell growth inhibition; type: cell-based; conditions: Homo sapiens, MCF7, 72 h, 72 hours incubation, read-out: GI50 MCF
Outline: as §1

[4] = test system: K562 (human leukemia cells); assay: MTT cancer cell growth inhibition; type: cell-based; conditions: Homo sapiens, K562, 72 h, MTT, 72 hours incubation, K562 cells; read-out: GI50 K562
Outline: as §1

[5] = test system: HT1080 (human fibrosarcoma cells); assay: MTT cancer cell growth inhibition; type: cell-based; conditions: Homo sapiens, HT-1080, 72 h, MTT, 72 hours incubation, read-out: GI50 HT1
Outline: as §1

[6] = test system: KBM5-T315I (human chronic myelogenous leukemia); assay: MTT cancer cell growth inhibition; type: cell-based; conditions: Homo sapiens, 72 h, MTT, 72 hours incubation, KBM5-T315I cells; read-out: GI50 KBM5-T315I
Outline: as §1

[7] = test system: MOLT-4 (human acute lymphoblastic leukemia cells); assay: MTT cancer cell growth inhibition; type: cell-based; conditions: Homo sapiens, MOLT-4, 72 h, MTT, 72 hours incubation, read-out: GI50 Mol
Outline: as §1

[8] = test system: DU145 (human prostate cancer cells); assay: MTT cancer cell growth inhibition; type: cell-based; conditions: Homo sapiens, DU-145, 72 h, MTT, 72 hours incubation, read-out: GI50 Du1
Outline: as §1

[9] = test system: SGC-7901 (human gastric cancer cells); assay: MTT cancer cell growth inhibition; type: cell-based; conditions: Homo sapiens, SGC-7901, 72 h, MTT, 72 hours incubation, SGC-7901 cells; read-out: GI50 SGC-7901
Outline: as §1

[10] = test system: Huh-7 (human hepatoma cells); assay: MTT cancer cell growth inhibition; type: cell-based; conditions: Homo sapiens, Huh-7, 72 h, MTT, 72 hours incubation, Huh-7 cells; read-out: GI50 Huh-7
Outline: as §1

[11] = test system: H1975 (non-small cell lung adenocarcinoma); assay: MTT cancer cell growth inhibition; type: cell-based; conditions: Homo sapiens, NCI-H1975, 72 h, MTT, 72 hours incubation, H1975 cells; read-out: GI50 H1975
Outline: as §1

[12] = test system: N-87 (human gastric cancer cells); assay: MTT cancer cell growth inhibition; type: cell-based; conditions: Homo sapiens, 72 h, MTT, 72 hours incubation, N-87 cells; read-out: GI50 N-87
Outline: as §1

[13] = test system: MDA-MB-231 (breast cancer cells); assay: MTT cancer cell growth inhibition; type: cell-based; conditions: Homo sapiens, MDA-MB-231, 72 h, read-out: GI50 MDA-MB-231, MTT, 72 hours incubation, MDA-MB-231 cells
Outline: as §1

[14] = test system: U937 (human leukemia cells); assay: MTT cancer cell growth inhibition; type: cell-based; conditions: Homo sapiens, U-937, 72 h, MTT, 72 hours incubation, read-out: GI50 U93
Outline: as §1

[15] = test system: Hela (human cervical cancer cells); assay: MTT cancer cell growth inhibition; type: cell-based; conditions: Homo sapiens, HeLa, 72 h, MTT, 72 hours incubation, read-out: GI50 Hela
Outline: as §1

[16] = test system: BGC-823 (human gastric cancer cells); assay: MTT cancer cell growth inhibition; type: cell-based; conditions: Homo sapiens, BGC-823, 72 h, MTT, 72 hours incubation, read-out: GI50 BG
Outline: as §1

[17] = test system: A549 (human lung cancer cells); assay: MTT cancer cell growth inhibition; type: cell-based; conditions: Homo sapiens, A549, 72 h, MTT, 72 hours incubation, read-out: GI50 A54
Outline: as §1

[18] = test system: Bel-7402 (human hepatoma cells); assay: MTT cancer cell growth inhibition; type: cell-based; conditions: Homo sapiens, Bel-7402, 72 h, MTT, 72 hours incubation, Bel-7402 cells; read-out: GI50 Bel-7402
Outline: as §1

[19] = test system: lncap (prostate cancer cells); assay: MTT cancer cell growth inhibition; type: cell-based; conditions: Homo sapiens, LNCaP, 72 h, MTT, 72 hours incubation, read-out: GI50 lnca
Outline: as §1

[20] = test system: HCC827 (human non-small cell lung cancer cells); assay: MTT cancer cell growth inhibition; type: cell-based; conditions: Homo sapiens, HCC827, 72 h, MTT, 72 hours incubation, HCC827 cells; read-out: GI50 HCC827
Outline: as §1

Row | Compound | IC50 HDAC7 (HDAC7) | GI50 [1] [nM] | GI50 [2] [nM] | GI50 [3] [nM] | GI50 [4] [nM] | GI50 [5] [nM] | GI50 [6] [nM] | GI50 [7] [nM] | GI50 [8] [nM] | GI50 [9] [nM] | GI50 [10] [nM] | GI50 [11] [nM] | GI50 [12] [nM] | GI50 [13] [nM] | GI50 [14] [nM] | GI50 [15] [nM] | GI50 [16] [nM] | GI50 [17] [nM] | GI50 [18] [nM] | GI50 [20] [nM] | other results
1 | C/C=C1\NC(=O)c2ccc(F)c(n2)CNC(=O)C[C@@H](/C=C/CCSC(C)=O)OC(=O)[C@H](CC)NC1=O [Example 59] | no activity | 61 | 80 | 70 | 38 | 80 | 74 | 30 | 30 | 59 | 37 | 39 | 59 | 37 | 30 | 60 | 50 | 50 | 82 | 82 | GI50 [19]: 30 nM
2 | C/C=C1\NC(=O)c2ccc(F)c(n2)CNC(=O)C[C@@H](/C=C/CCS)OC(=O)[C@H](C)NC1=O [Compound 114] | no activity | 99 | 60 | 60 | 38 | 100 | 28 | 100 | 60 | 43 | 54 | 32 | 11 | 22 | 30 | 70 | 60 | 30 | 42 | 71 | GI50 [19]: 70 nM
3 | C=C1NC(=O)c2cc(F)cc(n2)CNC(=O)C[C@@H](/C=C/CCSC(C)=O)OC(=O)[C@H](C)NC1=O [Compound 91] | no activity | 91 | 50 | 30 | 26 | 50 | 31 | 40 | 20 | 48 | 46 | 38 | 62 | 46 | 30 | 90 | 60 | 40 | 51 | 51 | GI50 [19]: 40 nM
4 | C/C=C1\NC(=O)c2cc(SC)cc(n2)CNC(=O)C[C@@H](/C=C/CCSC(C)=O)OC(=O)[C@H](Cc2ccc(O)cc2)NC1=O [Compound 202] | no activity | 38 | – | – | 15 | – | 26 | – | – | 31 | 31 | 58 | 29 | 41 | – | – | – | – | 76 | 32 | GI50 ([2]; PANC-1 cells): 30 nM; GI50 ([3]; MCF-7 cells): 30 nM; GI50 ([5]; HT1080 cells): 30 nM; GI50 ([7]; MOLT-4 cells): 50 nM; GI50 ([8]; DU145 cells): 70 nM; GI50 ([14]; U937 cells): 20 nM; GI50 ([15]; Hela cells): 20 nM; GI50 ([16]; BGC-823 cells): 40 nM; GI50 ([17]; A549 cells): 50 nM; GI50 ([19]; lncap cells): 20 nM
5 | C/C=C1\NC(=O)c2ccc(SC)c(n2)CNC(=O)C[C@@H](/C=C/CCSC(C)=O)OC(=O)[C@H](Cc2ccccc2)NC1=O [Compound 188] | no activity | 18 | – | – | 36 | – | 36 | – | – | 71 | 79 | 53 | 28 | 23 | – | – | – | – | 42 | 29 | GI50 ([2]; PANC-1 cells): 50 nM; GI50 ([3]; MCF-7 cells): 30 nM; GI50 ([5]; HT1080 cells): 80 nM; GI50 ([7]; MOLT-4 cells): 30 nM; GI50 ([8]; DU145 cells): 30 nM; GI50 ([14]; U937 cells): 40 nM; GI50 ([15]; Hela cells): 50 nM; GI50 ([16]; BGC-823 cells): 30 nM; GI50 ([17]; A549 cells): 20 nM; GI50 ([19]; lncap cells): 60 nM
6 | C=C1NC(=O)c2nc(ccc2SC)CNC(=O)C[C@@H](/C=C/CCSC(C)=O)OC(=O)[C@H](C)NC1=O [Compound 210] | no activity | 52 | – | – | 86 | – | 49 | – | – | 105 | 22 | 25 | 27 | 72 | – | – | – | – | 47 | 56 | GI50 ([2]; PANC-1 cells): 50 nM; GI50 ([3]; MCF-7 cells): 30 nM; GI50 ([5]; HT1080 cells): 20 nM; GI50 ([7]; MOLT-4 cells): 50 nM; GI50 ([8]; DU145 cells): 30 nM; GI50 ([14]; U937 cells): 20 nM; GI50 ([15]; Hela cells): 30 nM; GI50 ([16]; BGC-823 cells): 10 nM; GI50 ([17]; A549 cells): 50 nM; GI50 ([19]; lncap cells): 50 nM
7 | C/C=C1\NC(=O)c2ccc(F)c(n2)CNC(=O)C[C@@H](/C=C/CCSC(=O)CCCCC)OC(=O)[C@H](C(C)C)NC1=O [Example 38] | no activity | 77 | 80 | 60 | 39 | 80 | 64 | 30 | 30 | 34 | 33 | 34 | 49 | 33 | 30 | 70 | 40 | 30 | 84 | 84 | GI50 [19]: 30 nM
